# Results published in ChEMBL document CHEMBL1130310, “C3-Thia and C3-carba isosteres of a carbocyclic influenza neuraminidase inhibitor, (3R,4R,5S)-4-acetamido-5-amino-3-propoxyl-1-cyclohexene-1-carboxylic acid” (Bioorg Med Chem Lett, 1997).
# How the values were obtained:
# [1] = Concentration required for 50% inhibition of influenza neuraminidase; design: species or system unidentified influenza virus
# [2] = Concentration required for 50% inhibition of influenza neuraminidase incubated in rat plasma at 37 degrees Celsius prior to assay; assay type: cell-free; conditions: unidentified influenza virus
SMILES,IC50 [1],IC50 [2]
CCCC[C@@H]1C=C(C(=O)O)C[C@H](N)[C@H]1NC(C)=O,220 nM,–
CCCO[C@@H]1C=C(C(=O)O)C[C@H](N)[C@H]1NC(C)=O,130 nM,–
CCCS[C@@H]1C=C(C(=O)O)C[C@H](N)[C@H]1NC(C)=O,–,212 nM
